# Experimental data as given in the NIST ThermoML archive (doi:10.1021/je301353z).
# ± gives the expanded uncertainty stated by the source.
# Test: xn = mol fraction of the nth substance listed
# Conditions: 101 kPa, Liquid; for speed of sound: Sing-around technique in a fixed-path interferometer; for mass density: Vibrating tube method
compound,measurement,setting,value
O=C1CCCN1 [2-pyrrolidinone] + c1ccncc1,speed of sound,"293.15 K, x1 = 0.1333",1468.5 ± 1.2 m/s
same,speed of sound,"293.15 K, x1 = 0.1801",1478.1 ± 1.2 m/s
same,speed of sound,"293.15 K, x1 = 0.2312",1488.6 ± 1.2 m/s
same,speed of sound,"293.15 K, x1 = 0.2713",1496.9 ± 1.2 m/s
same,speed of sound,"293.15 K, x1 = 0.3312",1509.4 ± 1.2 m/s
same,speed of sound,"293.15 K, x1 = 0.3717",1518 ± 1.2 m/s
same,speed of sound,"293.15 K, x1 = 0.4312",1530.8 ± 1.2 m/s
same,speed of sound,"293.15 K, x1 = 0.4752",1540.2 ± 1.2 m/s
same,speed of sound,"293.15 K, x1 = 0.5316",1552.3 ± 1.3 m/s
same,speed of sound,"293.15 K, x1 = 0.5717",1560.9 ± 1.3 m/s
same,speed of sound,"293.15 K, x1 = 0.6219",1571.9 ± 1.3 m/s
same,speed of sound,"293.15 K, x1 = 0.6772",1583.7 ± 1.3 m/s
same,speed of sound,"293.15 K, x1 = 0.7314",1595.4 ± 1.3 m/s
same,speed of sound,"293.15 K, x1 = 0.7714",1603.9 ± 1.3 m/s
same,speed of sound,"293.15 K, x1 = 0.8312",1616.4 ± 1.3 m/s
same,speed of sound,"293.15 K, x1 = 0.8712",1624.7 ± 1.3 m/s
same,speed of sound,"293.15 K, x1 = 0.9013",1630.8 ± 1.3 m/s
same,speed of sound,"293.15 K, x1 = 0.9311",1636.8 ± 1.3 m/s
same,mass density,"293.15 K, x1 = 0.1333",1001.83 ± 1 kg/m3
same,mass density,"293.15 K, x1 = 0.1801",1008.31 ± 1 kg/m3
same,mass density,"293.15 K, x1 = 0.2312",1015.32 ± 1 kg/m3
same,mass density,"293.15 K, x1 = 0.2713",1020.76 ± 1 kg/m3
same,mass density,"293.15 K, x1 = 0.3312",1028.79 ± 1 kg/m3
same,mass density,"293.15 K, x1 = 0.3717",1034.17 ± 1 kg/m3
same,mass density,"293.15 K, x1 = 0.4312",1041.94 ± 1 kg/m3
same,mass density,"293.15 K, x1 = 0.4752",1047.59 ± 1 kg/m3
same,mass density,"293.15 K, x1 = 0.5316",1054.74 ± 1 kg/m3
same,mass density,"293.15 K, x1 = 0.5717",1059.77 ± 1 kg/m3
same,mass density,"293.15 K, x1 = 0.6219",1065.97 ± 1 kg/m3
same,mass density,"293.15 K, x1 = 0.6772",1072.71 ± 1 kg/m3
same,mass density,"293.15 K, x1 = 0.7314",1079.26 ± 1 kg/m3
same,mass density,"293.15 K, x1 = 0.7714",1084.05 ± 1 kg/m3
same,mass density,"293.15 K, x1 = 0.8312",1091.16 ± 1 kg/m3
same,mass density,"293.15 K, x1 = 0.8712",1095.91 ± 1 kg/m3
same,mass density,"293.15 K, x1 = 0.9013",1099.48 ± 1 kg/m3
same,mass density,"293.15 K, x1 = 0.9311",1103.03 ± 1 kg/m3
same,speed of sound,"298.15 K, x1 = 0.1333",1445.6 ± 1.2 m/s
same,speed of sound,"298.15 K, x1 = 0.1801",1455.5 ± 1.2 m/s
same,speed of sound,"298.15 K, x1 = 0.2312",1466.4 ± 1.2 m/s
same,speed of sound,"298.15 K, x1 = 0.2713",1475.1 ± 1.2 m/s
same,speed of sound,"298.15 K, x1 = 0.3312",1488.1 ± 1.2 m/s
same,speed of sound,"298.15 K, x1 = 0.3717",1496.8 ± 1.2 m/s
same,speed of sound,"298.15 K, x1 = 0.4312",1510 ± 1.2 m/s
same,speed of sound,"298.15 K, x1 = 0.4752",1519.7 ± 1.2 m/s
same,speed of sound,"298.15 K, x1 = 0.5316",1532.1 ± 1.2 m/s
same,speed of sound,"298.15 K, x1 = 0.5717",1541 ± 1.2 m/s
same,speed of sound,"298.15 K, x1 = 0.6219",1552.1 ± 1.3 m/s
same,speed of sound,"298.15 K, x1 = 0.6772",1564.5 ± 1.3 m/s
same,speed of sound,"298.15 K, x1 = 0.7314",1576.4 ± 1.3 m/s
same,speed of sound,"298.15 K, x1 = 0.7714",1585.1 ± 1.3 m/s
same,speed of sound,"298.15 K, x1 = 0.8312",1598.2 ± 1.3 m/s
same,speed of sound,"298.15 K, x1 = 0.8712",1606.7 ± 1.3 m/s
same,speed of sound,"298.15 K, x1 = 0.9013",1613.2 ± 1.3 m/s
same,speed of sound,"298.15 K, x1 = 0.9311",1619.6 ± 1.3 m/s
same,mass density,"298.15 K, x1 = 0.1333",997.07 ± 1 kg/m3
same,mass density,"298.15 K, x1 = 0.1801",1003.57 ± 1 kg/m3
same,mass density,"298.15 K, x1 = 0.2312",1010.62 ± 1 kg/m3
same,mass density,"298.15 K, x1 = 0.2713",1016.1 ± 1 kg/m3
same,mass density,"298.15 K, x1 = 0.3312",1024.17 ± 1 kg/m3
same,mass density,"298.15 K, x1 = 0.3717",1029.56 ± 1 kg/m3
same,mass density,"298.15 K, x1 = 0.4312",1037.41 ± 1 kg/m3
same,mass density,"298.15 K, x1 = 0.4752",1043.13 ± 1 kg/m3
same,mass density,"298.15 K, x1 = 0.5316",1050.35 ± 1 kg/m3
same,mass density,"298.15 K, x1 = 0.5717",1055.45 ± 1 kg/m3
same,mass density,"298.15 K, x1 = 0.6219",1061.74 ± 1 kg/m3
same,mass density,"298.15 K, x1 = 0.6772",1068.57 ± 1 kg/m3
same,mass density,"298.15 K, x1 = 0.7314",1075.19 ± 1 kg/m3
same,mass density,"298.15 K, x1 = 0.7714",1080.04 ± 1 kg/m3
same,mass density,"298.15 K, x1 = 0.8312",1087.2 ± 1 kg/m3
same,mass density,"298.15 K, x1 = 0.8712",1091.96 ± 1 kg/m3
same,mass density,"298.15 K, x1 = 0.9013",1095.53 ± 1 kg/m3
same,mass density,"298.15 K, x1 = 0.9311",1099.05 ± 1 kg/m3
same,speed of sound,"303.15 K, x1 = 0.1333",1426.5 ± 1.2 m/s
same,speed of sound,"303.15 K, x1 = 0.1801",1436.7 ± 1.2 m/s
same,speed of sound,"303.15 K, x1 = 0.2312",1447.9 ± 1.2 m/s
same,speed of sound,"303.15 K, x1 = 0.2713",1456.6 ± 1.2 m/s
same,speed of sound,"303.15 K, x1 = 0.3312",1469.8 ± 1.2 m/s
same,speed of sound,"303.15 K, x1 = 0.3717",1478.8 ± 1.2 m/s
same,speed of sound,"303.15 K, x1 = 0.4312",1491.9 ± 1.2 m/s
same,speed of sound,"303.15 K, x1 = 0.4752",1501.8 ± 1.2 m/s
same,speed of sound,"303.15 K, x1 = 0.5316",1514.4 ± 1.2 m/s
same,speed of sound,"303.15 K, x1 = 0.5717",1523.2 ± 1.2 m/s
same,speed of sound,"303.15 K, x1 = 0.6219",1534.4 ± 1.2 m/s
same,speed of sound,"303.15 K, x1 = 0.6772",1546.7 ± 1.3 m/s
same,speed of sound,"303.15 K, x1 = 0.7314",1558.8 ± 1.3 m/s
same,speed of sound,"303.15 K, x1 = 0.7714",1567.6 ± 1.3 m/s
same,speed of sound,"303.15 K, x1 = 0.8312",1580.7 ± 1.3 m/s
same,speed of sound,"303.15 K, x1 = 0.8712",1589.3 ± 1.3 m/s
same,speed of sound,"303.15 K, x1 = 0.9013",1596 ± 1.3 m/s
same,speed of sound,"303.15 K, x1 = 0.9311",1602.4 ± 1.3 m/s
same,mass density,"303.15 K, x1 = 0.1333",992.29 ± 1 kg/m3
same,mass density,"303.15 K, x1 = 0.1801",998.88 ± 1 kg/m3
same,mass density,"303.15 K, x1 = 0.2312",1006.02 ± 1 kg/m3
same,mass density,"303.15 K, x1 = 0.2713",1011.55 ± 1 kg/m3
same,mass density,"303.15 K, x1 = 0.3312",1019.7 ± 1 kg/m3
same,mass density,"303.15 K, x1 = 0.3717",1025.16 ± 1 kg/m3
same,mass density,"303.15 K, x1 = 0.4312",1033.04 ± 1 kg/m3
same,mass density,"303.15 K, x1 = 0.4752",1038.77 ± 1 kg/m3
same,mass density,"303.15 K, x1 = 0.5316",1046.02 ± 1 kg/m3
same,mass density,"303.15 K, x1 = 0.5717",1051.12 ± 1 kg/m3
same,mass density,"303.15 K, x1 = 0.6219",1057.4 ± 1 kg/m3
same,mass density,"303.15 K, x1 = 0.6772",1064.23 ± 1 kg/m3
same,mass density,"303.15 K, x1 = 0.7314",1070.86 ± 1 kg/m3
same,mass density,"303.15 K, x1 = 0.7714",1075.69 ± 1 kg/m3
same,mass density,"303.15 K, x1 = 0.8312",1082.86 ± 1 kg/m3
same,mass density,"303.15 K, x1 = 0.8712",1087.64 ± 1 kg/m3
same,mass density,"303.15 K, x1 = 0.9013",1091.23 ± 1 kg/m3
same,mass density,"303.15 K, x1 = 0.9311",1094.78 ± 1 kg/m3
same,speed of sound,"308.15 K, x1 = 0.1333",1406.5 ± 1.2 m/s
same,speed of sound,"308.15 K, x1 = 0.1801",1416.9 ± 1.2 m/s
same,speed of sound,"308.15 K, x1 = 0.2312",1428.3 ± 1.2 m/s
same,speed of sound,"308.15 K, x1 = 0.2713",1437.4 ± 1.2 m/s
same,speed of sound,"308.15 K, x1 = 0.3312",1450.9 ± 1.2 m/s
same,speed of sound,"308.15 K, x1 = 0.3717",1460 ± 1.2 m/s
same,speed of sound,"308.15 K, x1 = 0.4312",1473.6 ± 1.2 m/s
same,speed of sound,"308.15 K, x1 = 0.4752",1483.5 ± 1.2 m/s
same,speed of sound,"308.15 K, x1 = 0.5316",1496.3 ± 1.2 m/s
same,speed of sound,"308.15 K, x1 = 0.5717",1505.6 ± 1.2 m/s
same,speed of sound,"308.15 K, x1 = 0.6219",1517 ± 1.2 m/s
same,speed of sound,"308.15 K, x1 = 0.6772",1529.5 ± 1.2 m/s
same,speed of sound,"308.15 K, x1 = 0.7314",1541.7 ± 1.2 m/s
same,speed of sound,"308.15 K, x1 = 0.7714",1550.7 ± 1.3 m/s
same,speed of sound,"308.15 K, x1 = 0.8312",1564.3 ± 1.3 m/s
same,speed of sound,"308.15 K, x1 = 0.8712",1573.2 ± 1.3 m/s
same,speed of sound,"308.15 K, x1 = 0.9013",1580 ± 1.3 m/s
same,speed of sound,"308.15 K, x1 = 0.9311",1586.6 ± 1.3 m/s
same,mass density,"308.15 K, x1 = 0.1333",987.38 ± 1 kg/m3
same,mass density,"308.15 K, x1 = 0.1801",994.01 ± 1 kg/m3
same,mass density,"308.15 K, x1 = 0.2312",1001.17 ± 1 kg/m3
same,mass density,"308.15 K, x1 = 0.2713",1006.71 ± 1 kg/m3
same,mass density,"308.15 K, x1 = 0.3312",1014.93 ± 1 kg/m3
same,mass density,"308.15 K, x1 = 0.3717",1020.41 ± 1 kg/m3
same,mass density,"308.15 K, x1 = 0.4312",1028.34 ± 1 kg/m3
same,mass density,"308.15 K, x1 = 0.4752",1034.15 ± 1 kg/m3
same,mass density,"308.15 K, x1 = 0.5316",1041.5 ± 1 kg/m3
same,mass density,"308.15 K, x1 = 0.5717",1046.65 ± 1 kg/m3
same,mass density,"308.15 K, x1 = 0.6219",1053.03 ± 1 kg/m3
same,mass density,"308.15 K, x1 = 0.6772",1059.98 ± 1 kg/m3
same,mass density,"308.15 K, x1 = 0.7314",1066.7 ± 1 kg/m3
same,mass density,"308.15 K, x1 = 0.7714",1071.59 ± 1 kg/m3
same,mass density,"308.15 K, x1 = 0.8312",1078.85 ± 1 kg/m3
same,mass density,"308.15 K, x1 = 0.8712",1083.64 ± 1 kg/m3
same,mass density,"308.15 K, x1 = 0.9013",1087.24 ± 1 kg/m3
same,mass density,"308.15 K, x1 = 0.9311",1090.78 ± 1 kg/m3
